In the NIST ThermoML archive (doi:10.1021/je400917j):

Experiment: xn = mol fraction of the nth substance listed
Details: 101 kPa, Liquid; for mass density: Vibrating tube method

CC(=O)N(C)C [N,N-dimethylethanamide] + CC(C)O
Details | mass density, 298.15 K [kg/m3] | mass density, 303.15 K [kg/m3] | mass density, 308.15 K [kg/m3] | mass density, 313.15 K [kg/m3] | viscosity, 298.15 K [mPa·s] | viscosity, 303.15 K [mPa·s] | viscosity, 308.15 K [mPa·s] | viscosity, 313.15 K [mPa·s]
x1 = 0.081 | 796.1 | 791.8 | 787.4 | 782.8 | 1.68 | 1.53 | 1.39 | 1.22
x1 = 0.16 | 810.3 | 806 | 801.6 | 797 | 1.47 | 1.32 | 1.23 | 1.1
x1 = 0.2399 | 824.2 | 819.9 | 815.4 | 810.9 | 1.33 | 1.19 | 1.11 | 1
x1 = 0.3499 | 842.7 | 838.2 | 833.8 | 829.2 | 1.21 | 1.08 | 1.01 | 0.92
x1 = 0.4399 | 857.1 | 852.7 | 848.2 | 842.9 | 1.13 | 1.03 | 0.96 | 0.87
x1 = 0.5598 | 875.6 | 871.1 | 866.7 | 862.2 | 1.06 | 0.97 | 0.91 | 0.82
x1 = 0.6496 | 888.9 | 884.4 | 880 | 875.6 | 1.02 | 0.94 | 0.88 | 0.8
x1 = 0.7394 | 901.7 | 897.2 | 892.8 | 888.5 | 0.99 | 0.92 | 0.86 | 0.78
x1 = 0.8495 | 916.8 | 912.4 | 908 | 903.7 | 0.97 | 0.9 | 0.84 | 0.76
x1 = 0.9399 | 928.8 | 924.3 | 920 | 915.6 | 0.95 | 0.89 | 0.823 | 0.75
x1 = 1 | 936.5 | 932 | 927.8 | 923.5 | 0.94 | 0.87 | 0.82 | 0.75
